For 8 compounds, TGI results are on record in PubChem BioAssay (NCI).

SMILES strings stand for the structures.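 Grown in 96-well plates, cells were treated for 48 hours with each compound at five concentrations. Insufficient inhibition: endpoint recorded as highest concentration tested. TGI: total growth inhibition.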

Common to all, as to assay: inhibition of tumour cell growth, NCI panel, 48 h
Test [1] has as its system HT29 colon.
The test system of test [2] is SK-MEL-2 melanoma.
The subject of test [3] is NCI-H23 lung.
The subject of test [4] is COLO 205 colon.
The subject of test [5] is OVCAR-3 ovarian.
For test [6], the system named is CCRF-CEM leukemia.
In test [7] the test system is IGROV1 ovarian.
For test [8], the system named is M14 melanoma.
The test system of test [9] is SNB-19 CNS.
For test [10], the system named is UACC-62 melanoma.
The subject of test [11] is SF-539 CNS.
Test [12] deals with UO-31 renal.
Test [13] has as its system SF-295 CNS.
In test [14] the test system is MDA-MB-435.
In test [15] the test system is SNB-75 CNS.
The subject of test [16] is BT-549 breast.
In test [17] the test system is MCF7 breast.
Test [18] deals with SF-268 CNS.
Test [19] deals with SK-MEL-28 melanoma.

In the case of `Cc1cc2nn(C3CCCCO3)nc2cc1C` (configuration not stated), the TGI in test [1], in test [2], in [3], in test [4], in [5] and in test [6] was greater than 100 µM in each case. The TGI in [7], in test [8], in [9], in [10], in test [11] and in test [12] was greater than 100 µM throughout. The TGI in test [13], in test [14], in [15], in test [16], in test [17] and in [18] was greater than 100 µM throughout.
Take `CC[C@]1(Cc2ccc(OC)c(OC)c2)C=[N+]([O-])O[C@H](OC2CCCCC2c2ccccc2)[C@@H]1OC(C)=O` (some centres not stated): the TGI in test [1] was greater than 100 µM; in [2] it was greater than 100 µM; in test [3], greater than 100 µM; in test [4] it was 40.5 µM; in test [5], greater than 100 µM; in [6], 68.3 µM. The TGI in test [7], in [8], in [9], in test [10], in test [12] and in [19] was greater than 100 µM throughout. In addition, the TGI in test [13], in test [14], in test [15], in test [16] and in test [17] was greater than 100 µM each time.
`CCCCC1CCCCCCc2[nH]c(/C=C3\N=C(c4ccc[nH]4)C=C3OC)cc21` (configuration not stated): the TGI in test [1] is 1.11 µM; in test [2], less than 0.0237 µM; in test [3], 1.28 µM; in test [4], 1.39 µM; in test [5] it was less than 0.0224 µM; in test [6], 0.566 µM. Besides, the TGI is 1.29 µM in test [7]; 8.65 µM in test [9]; less than 0.0177 µM in test [10]; 1.13 µM in test [11]; 0.071 µM in test [12]; 0.492 µM in test [19]. The TGI in test [13] amounted to 1.17 µM; in test [14], 0.403 µM; in test [15], 0.638 µM; in test [16], 1.29 µM; in test [17], 1.11 µM; in [18] it was 2.13 µM.
With `CCCCCCCCCCCCCCCCC(=O)NCC(=O)NCC(=O)NC(Cc1ccccc1)C(=O)Oc1ccc([N+](=O)[O-])cc1` (configuration not stated), the TGI in test [1] was 88 µM; in test [2] it was greater than 100 µM; in test [3], greater than 100 µM; in test [4] it was 35.8 µM; in test [5], greater than 100 µM; in test [6] it was 44.9 µM. Moreover, the TGI was greater than 100 µM in [7]; 41.1 µM in test [8]; 40.5 µM in [10]; 46.8 µM in test [11]; greater than 100 µM in test [12]; 30.3 µM in test [19]. The TGI in [13] is 40.4 µM; in test [14] it was greater than 100 µM; in test [15] it was greater than 100 µM; in test [16], 34.2 µM; in test [17], greater than 100 µM; in test [18], 50.4 µM.
On to `CSC1=C(C(=O)N(COCC[Si](C)(C)C)c2ccccc2Br)CCC(C(C)(C)C)C1` (configuration not stated), for which the TGI in [1] was 64.4 µM; in test [2], 31.7 µM; in [3], greater than 100 µM; in test [4] it was 25.7 µM; in test [5], 24.4 µM; in test [6], greater than 100 µM. For the same compound, the TGI in test [7] was greater than 100 µM; in [8], 76.3 µM; in [9], 42.9 µM; in test [10], 39.9 µM; in [12] it was 27 µM; in test [19] it was greater than 100 µM. The TGI is 25.6 µM in test [13]; greater than 100 µM in [14]; greater than 100 µM in test [15]; greater than 100 µM in test [16]; 28 µM in test [17].
For the compound `O=C(O)c1[nH]c(=O)[nH]c(=O)c1CN1CCCCC1`, the TGI in test [1], in test [2], in test [3], in test [4], in test [5] and in test [6] was greater than 100 µM each time. The TGI in test [7], in test [8], in [9], in test [10], in test [12] and in test [19] was greater than 100 µM each time. The TGI in [13], in test [14], in test [15], in test [16], in test [17] and in [18] was greater than 100 µM throughout.
As to `Nc1cc(N2CCOCC2)nc(=O)n1-c1ccccc1`, the TGI in [1], in test [2], in test [3], in test [4], in [5] and in test [6] was greater than 100 µM in each case. Besides, the TGI in [7], in test [8], in [9], in [10], in test [11] and in test [12] was greater than 100 µM each time. Also, the TGI in [19], in [13], in test [14], in test [15], in test [16] and in [17] was greater than 100 µM in each case.
Turning to `Cn1cc(S(=O)(=O)NC(=O)Nc2ccc(Cl)cc2)c(=O)c2ccc(Cl)cc21`, the TGI in test [1], in [2], in test [3], in test [5], in [6] and in test [7] was greater than 100 µM throughout. Further, the TGI in test [8], in test [9], in test [10], in [11], in test [12] and in [19] was greater than 100 µM throughout. The TGI in [13], in [14], in [15], in test [16], in test [17] and in [18] was greater than 100 µM each time.
